Experimental findings from ChEMBL document CHEMBL6096729, “Creating Glepaglutide, the First Long-Acting GLP-2 Analogue to Enable a Ready-to-Use Injection” (J Med Chem, 2025) are described below.

One may read the EC50 as the concentration giving half of the maximal effect. The term half-life denotes how long it takes for the measured level to halve. The low end stands for fast loss, the high end for slow loss.

Data set [1] addresses T1, Glucagon-like peptide 2 receptor (Homo sapiens, UniProt O95838).
T1 sequence (O95838 whole entry): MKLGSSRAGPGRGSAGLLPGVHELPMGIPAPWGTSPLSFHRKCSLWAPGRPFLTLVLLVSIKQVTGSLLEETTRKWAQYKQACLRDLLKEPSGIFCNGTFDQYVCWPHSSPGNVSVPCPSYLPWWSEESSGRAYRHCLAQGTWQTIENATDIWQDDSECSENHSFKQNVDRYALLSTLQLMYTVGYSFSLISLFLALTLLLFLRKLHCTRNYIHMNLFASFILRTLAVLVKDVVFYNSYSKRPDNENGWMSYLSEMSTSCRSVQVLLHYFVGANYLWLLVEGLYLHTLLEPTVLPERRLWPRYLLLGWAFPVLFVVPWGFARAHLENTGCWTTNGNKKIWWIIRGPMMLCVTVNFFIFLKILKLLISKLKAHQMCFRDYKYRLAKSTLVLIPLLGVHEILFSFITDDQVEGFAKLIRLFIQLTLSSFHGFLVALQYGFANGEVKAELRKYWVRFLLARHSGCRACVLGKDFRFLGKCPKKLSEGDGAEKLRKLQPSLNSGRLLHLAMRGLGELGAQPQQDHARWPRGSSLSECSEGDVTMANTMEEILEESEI
Briefly: Agonist activity at recombinant human GLP-2R overexpressed in HEK293 cells assessed as cAMP accumulation by HTRF assay. It is filed as functional, cell-based.

For data set [2], the target named is T2, Glucagon-like peptide 2 receptor (Homo sapiens) (UniProt O95838).
T2 sequence (whole entry): T1 sequence (O95838 whole entry)
Briefly: Agonist activity at recombinant human GLP-2R overexpressed in HEK293 cells assessed as cAMP accumulation by HTRF assay relative to control. It is filed as functional, cell-based. Conditions: filed as agonist. (Cyclic AMP is a second messenger, typically raised through Gs and lowered through Gi signalling.)

The nature of data set [3]: Stability of compound assessed as change in fluorescence intensity measured after 96 hrs by ThT fibrillation assay. It is filed as physicochemical.
The subject of a further data set is Mus musculus. Briefly: Effect on small intestine of C57BL mouse assessed as mass of small intestine at 30 nmol/kg bid for 10 days relative to teduglutide. The class given is functional. Conditions: time 10 day.
A short description of data set [4]: Chemical stability in 50 mM Histidine at pH 7.0 at 40 degreeC assessed as fold decrease in total degradation measured after 3 weeks by HPLC analysis relative to teduglutide. Particulars: buffer, pH 7, 504 h. It is filed as physicochemical.
Data set [5] can be described thus: Half life in human. It is filed as ADME.

Turning to “H-HGEGSFSSELSTILDALAARDFIAWLIATKITDKKKKKK-NH2”, the EC50 in data set [1] came out at 0.18 nM. For the same compound, in data set [2], the Efficacy was 100%. Besides, the Activity result in data set [3] is reported as “Not_active”; in the data set with Mus musculus, 109%.

For H-HGEGSFSDELSTILDALAARDFIAWLIATKITD-NH2, the Flu intensity in data set [3] turned out to be 500 RFU.

“H-HGEGTFSSELSTILDALAARDFIAWLIATKITDKKKKKK-NH2”: the 50% effective concentration (EC50) in data set [1] was 0.37 nM. Moreover, the Efficacy in data set [2] was 102%. Further, the values for the Activity result (in data set [3]; in the data set with Mus musculus) were “Not_active” and 106%, respectively.

Regarding `CC[C@H](C)[C@H](NC(=O)[C@H](Cc1ccccc1)NC(=O)[C@H](CC(=O)O)NC(=O)[C@H](CCCNC(=N)N)NC(=O)[C@H](C)NC(=O)[C@H](C)NC(=O)[C@H](CC(C)C)NC(=O)[C@H](CC(N)=O)NC(=O)[C@H](CC(=O)O)NC(=O)[C@H](CC(C)C)NC(=O)[C@@H](NC(=O)[C@@H](NC(=O)[C@H](CC(N)=O)NC(=O)[C@H](CCSC)NC(=O)[C@H](CCC(=O)O)NC(=O)[C@H](CC(=O)O)NC(=O)[C@H](CO)NC(=O)[C@H](Cc1ccccc1)NC(=O)[C@H](CO)NC(=O)CNC(=O)[C@H](CC(=O)O)NC(=O)CNC(=O)[C@@H](N)Cc1c[nH]cn1)[C@@H](C)O)[C@@H](C)CC)C(=O)N[C@@H](CC(N)=O)C(=O)N[C@@H](Cc1c[nH]c2ccccc12)C(=O)N[C@@H](CC(C)C)C(=O)N[C@H](C(=O)N[C@@H](CCC(N)=O)C(=O)N[C@H](C(=O)N[C@@H](CCCCN)C(=O)N[C@H](C(=O)N[C@H](C(=O)N[C@@H](CC(=O)O)C(=O)O)[C@@H](C)O)[C@@H](C)CC)[C@@H](C)O)[C@@H](C)CC`, the Efficacy in data set [2] was 101%.

For H-HGEGTFSSELATILDALAARDFIAWLIATKITD-NH2, in data set [1], the EC50 was 0.1 nM. The Efficacy in data set [2] was 100%. Moreover, the Activity entry in data set [3] is listed as “Not_active”; in the data set with Mus musculus, 117%.

With “H-HGEGTFSDELSTILDALAARDFIAWLIATKITDKKKKKK-NH2”, the EC50 in data set [1] is 0.34 nM. Also, in data set [2], the Efficacy worked out at 102%. The Activity result is reported as “Not_active” in data set [3] and 105% in the data set on Mus musculus.

Regarding H-HGEGTFSSELSTILDALAARDFIAWLIATKITD-NH2, in data set [1], the EC50 came to 0.18 nM. Besides, the Efficacy in data set [2] stood at 101%. The Flu intensity in data set [3] was found to be 500 RFU. The Activity with Mus musculus stood at 101%.

For the compound H-HGEGSFSSELSTILDALAARDFIAWLIATKITD-NH2, the EC50 in data set [1] stood at 0.11 nM. Also, in data set [2], the Efficacy turned out to be 102%. Moreover, the Flu intensity in data set [3] is recorded as 500 RFU. Moreover, in the data set with Mus musculus, the Activity is recorded as 106%.

Consider “H-HGEGTFSSELATILDALAARDFIAWLIATKITDKKKKKK-NH2”, for which the EC50 in data set [1] is 0.18 nM. Besides, the “fold change (FC)” value in data set [4] was 2.6. Further, the Efficacy in data set [2] worked out at 102%. For the same compound, the Activity result is “Not_active” in data set [3] and 109% in the data set with Mus musculus. In addition, the half-life in data set [5] was 88 h.

With “H-HGEGSFSDELSTILDALAARDFIAWLIATKITDKKKKKK-OH”, in data set [3], the Activity entry is reported as “Not_active”.

Take H-HGEGTFSDELSTILDALAARDFIAWLIATKITD-NH2: in data set [1], the EC50 turned out to be 0.09 nM. Also, the Efficacy in data set [2] came out at 104%. Moreover, the Flu intensity in data set [3] came out at 500 RFU. Also, the Activity with Mus musculus was determined as 98%.
